Reference: the NIST ThermoML archive (doi:10.1016/j.jct.2016.03.032)
± gives the expanded uncertainty stated by the source.

Experiment: mn = molality of the nth substance listed, in mol/kg
Conditions: 298.15 K, Liquid, Frequency=10 MHz, Single path-length method

With `NCC(=O)NCC(=O)NCC(=O)O` [glycylglycylglycine] + O as the molecule, how does the speed of sound (10000 kPa, m1 = 0.03621) read?
The speed of sound was 1516.9 ± 0.71 m/s.

What about the speed of sound (10000 kPa, m1 = 0.0487) of the same molecule?
Its speed of sound is 1518.2 ± 0.71 m/s.

And the speed of sound (10000 kPa, m1 = 0.06185)?
The speed of sound was 1519.5 ± 0.71 m/s.

What about the speed of sound (10000 kPa, m1 = 0.07503) of the same molecule?
The speed of sound was 1520.8 ± 0.71 m/s.

What about the speed of sound (10000 kPa, m1 = 0.08705) of the same molecule?
Its speed of sound is 1522.1 ± 0.71 m/s.

What about the speed of sound (10000 kPa, m1 = 0.1005) of the same molecule?
The speed of sound was 1523.3 ± 0.71 m/s.

What about the speed of sound (20000 kPa, m1 = 0.03621) of the same molecule?
The speed of sound was 1533.8 ± 0.71 m/s.

And the speed of sound (20000 kPa, m1 = 0.0487)?
Its speed of sound is 1535 ± 0.71 m/s.

And the speed of sound (20000 kPa, m1 = 0.06185)?
The speed of sound was 1536.3 ± 0.71 m/s.

And the speed of sound (20000 kPa, m1 = 0.07503)?
Its speed of sound is 1537.7 ± 0.71 m/s.

What about the speed of sound (20000 kPa, m1 = 0.08705) of the same molecule?
Its speed of sound is 1538.9 ± 0.71 m/s.

What about the speed of sound (20000 kPa, m1 = 0.1005) of the same molecule?
The speed of sound was 1540.2 ± 0.71 m/s.

What about the speed of sound (40000 kPa, m1 = 0.03621) of the same molecule?
Its speed of sound is 1567.4 ± 0.71 m/s.

What about the speed of sound (40000 kPa, m1 = 0.0487) of the same molecule?
The speed of sound was 1568.6 ± 0.71 m/s.

And the speed of sound (40000 kPa, m1 = 0.06185)?
Its speed of sound is 1570 ± 0.71 m/s.

What about the speed of sound (40000 kPa, m1 = 0.07503) of the same molecule?
The speed of sound was 1571.3 ± 0.71 m/s.

What about the speed of sound (40000 kPa, m1 = 0.08705) of the same molecule?
Its speed of sound is 1572.5 ± 0.71 m/s.

And the speed of sound (40000 kPa, m1 = 0.1005)?
The speed of sound was 1573.8 ± 0.71 m/s.

What about the speed of sound (60000 kPa, m1 = 0.03621) of the same molecule?
The speed of sound was 1600.8 ± 0.71 m/s.

What about the speed of sound (60000 kPa, m1 = 0.0487) of the same molecule?
Its speed of sound is 1602.1 ± 0.71 m/s.

What about the speed of sound (60000 kPa, m1 = 0.06185) of the same molecule?
Its speed of sound is 1603.4 ± 0.71 m/s.

What about the speed of sound (60000 kPa, m1 = 0.07503) of the same molecule?
Its speed of sound is 1604.8 ± 0.71 m/s.

And the speed of sound (60000 kPa, m1 = 0.08705)?
The speed of sound was 1606.1 ± 0.71 m/s.

And the speed of sound (60000 kPa, m1 = 0.1005)?
Its speed of sound is 1607.4 ± 0.71 m/s.

What about the speed of sound (80000 kPa, m1 = 0.03621) of the same molecule?
The speed of sound was 1634.2 ± 0.7 m/s.

What about the speed of sound (80000 kPa, m1 = 0.0487) of the same molecule?
Its speed of sound is 1635.5 ± 0.7 m/s.

And the speed of sound (80000 kPa, m1 = 0.06185)?
The speed of sound was 1636.8 ± 0.7 m/s.

What about the speed of sound (80000 kPa, m1 = 0.07503) of the same molecule?
The speed of sound was 1638.2 ± 0.7 m/s.

What about the speed of sound (80000 kPa, m1 = 0.08705) of the same molecule?
The speed of sound was 1639.4 ± 0.7 m/s.

And the speed of sound (80000 kPa, m1 = 0.1005)?
The speed of sound was 1640.7 ± 0.71 m/s.

What about the speed of sound (100000 kPa, m1 = 0.03621) of the same molecule?
Its speed of sound is 1667.4 ± 0.7 m/s.

What about the speed of sound (100000 kPa, m1 = 0.0487) of the same molecule?
Its speed of sound is 1668.6 ± 0.7 m/s.

What about the speed of sound (100000 kPa, m1 = 0.06185) of the same molecule?
Its speed of sound is 1669.9 ± 0.7 m/s.

And the speed of sound (100000 kPa, m1 = 0.07503)?
Its speed of sound is 1671.3 ± 0.7 m/s.

What about the speed of sound (100000 kPa, m1 = 0.08705) of the same molecule?
The speed of sound was 1672.5 ± 0.7 m/s.

What about the speed of sound (100000 kPa, m1 = 0.1005) of the same molecule?
Its speed of sound is 1673.8 ± 0.7 m/s.

What about the speed of sound (120000 kPa, m1 = 0.03621) of the same molecule?
The speed of sound was 1700.2 ± 0.69 m/s.

What about the speed of sound (120000 kPa, m1 = 0.0487) of the same molecule?
Its speed of sound is 1701.4 ± 0.7 m/s.

And the speed of sound (120000 kPa, m1 = 0.06185)?
The speed of sound was 1702.8 ± 0.7 m/s.

And the speed of sound (120000 kPa, m1 = 0.07503)?
Its speed of sound is 1704 ± 0.7 m/s.

And the speed of sound (120000 kPa, m1 = 0.08705)?
The speed of sound was 1705.2 ± 0.7 m/s.

What about the speed of sound (120000 kPa, m1 = 0.1005) of the same molecule?
The speed of sound was 1706.6 ± 0.7 m/s.

For `NCC(=O)N[C@@H](CC(N)=O)C(=O)NCC(=O)O` [glycyl-L-asparaginylglycine] + O, which speed of sound (10000 kPa, m1 = 0.01982) is on record?
Its speed of sound is 1515.6 ± 0.71 m/s.

What about the speed of sound (10000 kPa, m1 = 0.02619) of the same molecule?
The speed of sound was 1516.3 ± 0.71 m/s.

What about the speed of sound (10000 kPa, m1 = 0.02894) of the same molecule?
Its speed of sound is 1516.6 ± 0.71 m/s.

What about the speed of sound (10000 kPa, m1 = 0.03507) of the same molecule?
Its speed of sound is 1517.3 ± 0.71 m/s.

And the speed of sound (10000 kPa, m1 = 0.03983)?
The speed of sound was 1517.8 ± 0.71 m/s.

And the speed of sound (20000 kPa, m1 = 0.01982)?
The speed of sound was 1532.4 ± 0.71 m/s.

What about the speed of sound (20000 kPa, m1 = 0.02619) of the same molecule?
Its speed of sound is 1533.1 ± 0.71 m/s.

And the speed of sound (20000 kPa, m1 = 0.02894)?
The speed of sound was 1533.4 ± 0.71 m/s.

What about the speed of sound (20000 kPa, m1 = 0.03507) of the same molecule?
The speed of sound was 1534.1 ± 0.71 m/s.

What about the speed of sound (20000 kPa, m1 = 0.03983) of the same molecule?
Its speed of sound is 1534.6 ± 0.71 m/s.

What about the speed of sound (40000 kPa, m1 = 0.01982) of the same molecule?
The speed of sound was 1566 ± 0.71 m/s.

And the speed of sound (40000 kPa, m1 = 0.02619)?
Its speed of sound is 1566.7 ± 0.71 m/s.

What about the speed of sound (40000 kPa, m1 = 0.02894) of the same molecule?
Its speed of sound is 1567.1 ± 0.71 m/s.

And the speed of sound (40000 kPa, m1 = 0.03507)?
The speed of sound was 1567.8 ± 0.71 m/s.

And the speed of sound (40000 kPa, m1 = 0.03983)?
Its speed of sound is 1568.3 ± 0.71 m/s.

What about the speed of sound (60000 kPa, m1 = 0.01982) of the same molecule?
The speed of sound was 1599.5 ± 0.71 m/s.

And the speed of sound (60000 kPa, m1 = 0.02619)?
Its speed of sound is 1600.2 ± 0.71 m/s.

What about the speed of sound (60000 kPa, m1 = 0.02894) of the same molecule?
Its speed of sound is 1600.5 ± 0.71 m/s.

And the speed of sound (60000 kPa, m1 = 0.03507)?
The speed of sound was 1601.3 ± 0.71 m/s.

And the speed of sound (60000 kPa, m1 = 0.03983)?
The speed of sound was 1601.8 ± 0.71 m/s.

And the speed of sound (80000 kPa, m1 = 0.01982)?
Its speed of sound is 1632.8 ± 0.7 m/s.

What about the speed of sound (80000 kPa, m1 = 0.02619) of the same molecule?
Its speed of sound is 1633.5 ± 0.7 m/s.

What about the speed of sound (80000 kPa, m1 = 0.02894) of the same molecule?
Its speed of sound is 1633.9 ± 0.7 m/s.

And the speed of sound (80000 kPa, m1 = 0.03507)?
The speed of sound was 1634.6 ± 0.7 m/s.

And the speed of sound (80000 kPa, m1 = 0.03983)?
Its speed of sound is 1635.1 ± 0.7 m/s.

What about the speed of sound (100000 kPa, m1 = 0.01982) of the same molecule?
The speed of sound was 1666 ± 0.7 m/s.

What about the speed of sound (100000 kPa, m1 = 0.02619) of the same molecule?
Its speed of sound is 1666.7 ± 0.7 m/s.

What about the speed of sound (100000 kPa, m1 = 0.02894) of the same molecule?
Its speed of sound is 1667 ± 0.7 m/s.

What about the speed of sound (100000 kPa, m1 = 0.03507) of the same molecule?
The speed of sound was 1667.8 ± 0.7 m/s.

And the speed of sound (100000 kPa, m1 = 0.03983)?
Its speed of sound is 1668.3 ± 0.7 m/s.

What about the speed of sound (120000 kPa, m1 = 0.01982) of the same molecule?
The speed of sound was 1698.8 ± 0.69 m/s.

And the speed of sound (120000 kPa, m1 = 0.02619)?
The speed of sound was 1699.6 ± 0.7 m/s.

And the speed of sound (120000 kPa, m1 = 0.02894)?
The speed of sound was 1699.9 ± 0.7 m/s.
